Reference: patent US8361734B2, “Xanthurenic acid derivative pharmaceutical compositions and methods related thereto” (Naturon, Inc., priority 2004, dated 2013)

Assays:
Assay type in all cases: in vivo
[1] = tested on: uremic Sprague Dawley rat; assay: Natriuretic response (Na+ and K+ urine excretion) after i.v. administration in a uremic Sprague Dawley rat
Excerpt: Female Sprague-Dawley rat, weighing 225 g, was made uremic by tying off one kidney and 30-50% of the second kidney. Two weeks later the rat was ready to test for natriuretic activity. The rat was anesthetized lightly with ether and a tail vein catheter was placed using PE10 tubing. Additionally, a urethra catheter was inserted using KY jelly and 2% lidocaine as a lubricant. The rat was restrained in a modified Plexiglas tube so that urine could be collected in 1.5-mL microcentrifuge tubes. Saline infusion started at time zero at 0.02 mL/min for the length of the assay. The same i.v. catheter was used to inject isolated xanthurenic acid 8-O-β-glucoside at the time indicated in a 1-mL volume in saline over the course of 10 minutes. […] The tubes were centrifuged at 14,000 rpm to separate any RBC's from the urine. Na^+ and K^+ concentrations in the urine were measured with respective ion selective electrodes. The Na^+ and K^+ excretion rates were calculated by: (vol of urine/time of collection period)×(ion urine concentration).
A female Sprague-Dawley rat, weighing 225 g, was made uremic by tying off one kidney and 30-50% of the second kidney. Two weeks later the rat was ready to test for natriuretic activity. The rat was anesthetized lightly with ether and a tail vein catheter was placed using PE10 tubing. Additionally, a urethra catheter was inserted using KY jelly and 2% lidocaine as a lubricant. The rat was restrained in a modified Plexiglas tube so that urine could be collected in 1.5-mL microcentrifuge tubes. Saline infusion started at time zero at 0.02 mL/min for the length of the assay. The same i.v. catheter was used to inject the test compound. Isolated xanthurenic acid 8-O-sulfate, 2 μg, was injected at the time indicated in a 1 mL volume in saline over the course of 10 minutes. Then saline infusion was returned to 0.02 mL/min for the duration of the assay. The tubes were centrifuged at 14,000 rpm to separate any RBC's from the urine. Na^+ and K^+ concentrations in the urine were measured with respective ion selective electrodes. The Na^+ and K^+ excretion rates were calculated by: (vol of urine/time of collection period)×(ion urine concentration).

[2] = tested on: normal Sprague Dawley rat; assay: Natriuretic response (Na+ and K+ urine excretion) after oral administration in a normal Sprague Dawley rat
Protocol: A female Sprague Dawley rat (250 g) was anesthetized lightly with ether and a urethra catheter was inserted using KY jelly and 2% lidocaine as a lubricant. The rat was restrained in a modified Plexiglas tube so that urine could be collected in 1.5-mL microcentrifuge tubes. No saline infusion was administered. Synthetic xanthurenic acid 8-O-β-D-glucoside was injected with a feeding needle at the time indicated in a 1-mL volume of water over the course of 1 minute. […] The tubes were centrifuged at 14,000 rpm to separate any RBC's from the urine. Na^+ and K^+ concentrations in the urine were measured with respective ion selective electrodes. The Na^+ and K^+ excretion rates were calculated by: (vol of urine/time of collection period)×(ion urine concentration).
A female Sprague Dawley rat (250 g) was anesthetized lightly with ether and a urethra catheter was inserted using KY jelly and 2% lidocaine as a lubricant. The rat was restrained in a modified Plexiglas tube so that urine could be collected in 1.5-mL microcentrifuge tubes. No saline infusion was administered. Xanthurenic acid 8-O-sulfate was injected with a feeding needle at the time indicated in a 1-mL volume of water over the course of 1 minute. The tubes were centrifuged at 14,000 rpm to separate any RBC's from the urine. Na^+ and K^+ concentrations in the urine were measured with respective ion selective electrodes. The Na^+ and K^+ excretion rates were calculated by: (vol of urine/time of collection period)×(ion urine concentration).

[3] = tested on: normal Sprague Dawley rat; assay: Natriuretic response (Na+ and K+ urine excretion) after i.v. administration in a normal Sprague Dawley rat; details: for natriuretic response (Na+ excretion): 2 μg i.v., FIGS. 1-4
Protocol: A female Sprague Dawley rat (250 g) was anesthetized lightly with ether and a tail vein catheter was placed using PE10 tubing. Additionally, a urethra catheter was inserted using KY jelly and 2% lidocaine as a lubricant. The rat was restrained in a modified Plexiglas tube so that urine could be collected in 1.5-mL microcentrifuge tubes. Saline infusion started at time zero at 0.02 mL/min for the duration of the assay. The same i.v. catheter was used to inject the test compound. Synthetic xanthurenic acid 8-O-β-D-glucoside, 2 μg, was injected at the time indicated in a 1-mL volume in saline over the course of 10 minutes. The tubes were centrifuged at 14,000 rpm to separate any RBC's from the urine. Na^+ and K^+ concentrations in the urine were measured with respective ion selective electrodes. The Na^+ and K^+ excretion rates were calculated by: (vol of urine/time of collection period)×(ion urine concentration). […] Given an extracellular volume of 50 mL in a 250-g rat, the concentration of the test compound was […], a possible minimum dose.
A female Sprague Dawley rat (250 g) was anesthetized lightly with ether and a tail vein catheter was placed using PE10 tubing. Additionally, a urethra catheter was inserted using KY jelly and 2% lidocaine as a lubricant. The rat was restrained in a modified Plexiglas tube so that urine could be collected in 1.5-mL microcentrifuge tubes. Saline infusion started at time zero at 0.02 mL/min for the length of the assay. The same i.v. catheter was used to inject the test compound. Synthetic xanthurenic acid 8-O-β-D-glucoside, 10 μg i.v. was injected at the time indicated in a 1-mL volume in saline over the course of 10 minutes. At the indicated time the saline infusion was increased tenfold to 0.2 mL/min for ten minutes and returned to 0.02 mL/min for the duration of the assay. The tubes were centrifuged at 14,000 rpm to separate any RBC's from the urine. Na^+ and K^+ concentrations in the urine were measured with respective ion selective electrodes. The Na^+ and K^+ excretion rates were calculated by: (vol of urine/time of collection period)×(ion urine concentration).

[4] = i.v. administered sulfate, FIG. 19

O=C(O)c1cc(=O)c2cccc(OS(=O)(=O)O)c2[nH]1 [xanthurenic acid 8-O-sulfate, Xanthurenic Acid 8-O-sulfate]
Na+ urine concentration after the increase [1, 4]: 160 mM | Na+ urine concentration before the increase [1, 4]: 60 mM | time until natriuresis approached control levels ([1]; isolated sulfate 2 μg i.v., uremic rat): ≤ 70 min | natriuretic response ([1]; isolated sulfate 2 μg i.v., uremic rat, FIGS. 17-20): caused sustained natriuretic response | time to peak of natriuresis ([1]; isolated sulfate 2 μg i.v., uremic rat, FIGS. 17 and 18): ≤ 30 min | K+ excretion ([1]; isolated sulfate 2 μg i.v., uremic rat, FIGS. 18 and 19): did not increase | Na+ urine concentration ([2]; 20 ug oral, synthetic sulfate, normal rat): below 50 mM | natriuretic response ([2]; 20 ug oral, synthetic sulfate, normal rat, FIGS. 21-24): not orally active

O=C(O)c1cc(=O)c2cccc(O[C@@H]3OC(CO)[C@@H](O)[C@H](O)C3O)c2[nH]1 (stereo partly drawn) [xanthurenic acid 8-O-β-D-glucoside, Xanthurenic acid 8-O-β-D-glucoside]
time of peak Na+ excretion ([1]; isolated glucoside 3 μg i.v., uremic rat, FIG. 13): 70 min | natriuretic response ([1]; isolated glucoside 3 μg i.v., uremic rat, FIGS. 13-16): caused a sustained natriuretic response | K+ excretion ([1]; isolated glucoside 3 μg i.v., uremic rat, FIGS. 14 and 15): did not increase | K+ excretion after furosemide ([1]; pretreatment with isolated glucoside 3 μg i.v. followed by furosemide 20 ug i.v., uremic rat, FIGS. 14 and 15): prevented the typical increase in K^+ excretion | natriuretic response ([2]; 10 μg oral, synthetic compound, normal rat, FIGS. 9-12): orally active | Na+ urine concentration reached ([2]; glucoside oral, normal rat, FIG. 11): 160 mM | K+ excretion ([2]; pretreatment with glucoside 10 μg oral followed by furosemide 100 μg oral, FIG. 10): did not increase K^+ excretion | furosemide-induced K+ excretion ([2]; pretreatment with glucoside 10 μg oral, furosemide 100 μg oral): inhibited | natriuretic response (Na+ excretion) ([3]; synthetic compound, normal rat): caused a sustained natriuretic response | Na+ excretion rate before increase of saline infusion ([3]; 10 μg i.v., saline 0.02 mL/min, FIG. 6): 2 uEq/min | Na+ excretion rate after saline infusion increased tenfold ([3]; 10 μg i.v., saline 0.2 mL/min for 10 minutes, FIG. 6): 10 uEq/min | time after administration at which urine production decreased ([3]; 10 μg i.v., saline infusion 0.02 mL/min): 140 min | K+ excretion ([3]; 10 μg i.v., synthetic compound, normal rat): did not increase | natriuretic response ([3]; 10 μg i.v., synthetic compound, normal rat, FIGS. 5-8): caused a sustained natriuretic response | natriuresis ([3]; synthetic glucoside given subsequently to xanthurenic acid 2 ug i.v., normal rat): did cause natriuresis

O=C(O)c1cc(O)c2cccc(O)c2n1 [xanthurenic acid]
natriuretic response (Na+ excretion) ([3]; synthetic compound, normal rat): did not increase Na^+ excretion
